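Tested at 5 concentrations; 48 h exposure; 96-well plates; endpoints linearly interpolated, else capped at highest concentration. Abbreviation: GI50, concentration required for 50% inhibition of growth.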 Activity calls are given as the source filed them. Rule as the data show it: active = GI50 up to about 1.1 µM and inactive = higher.
How the values were obtained:
Test in all cases: NCI anticancer screen, dose series, 48 h
SF-539 = tested on: SF-539
HOP-62 = tested on: HOP-62
UACC-62 = tested on: UACC-62
NCI-H522 = tested on: NCI-H522
HT-29 = tested on: HT-29
MOLT-4 = tested on: MOLT-4
CCRF-CEM = tested on: CCRF-CEM
EKVX = tested on: EKVX
M14 = tested on: M14
SK-OV-3 = tested on: SK-OV-3
KM12 = tested on: KM12
SNB-75 = tested on: SNB-75
SK-MEL-2 = tested on: SK-MEL-2
Malme-3M = tested on: Malme-3M
XF498 = tested on: XF498
SNB-19 = tested on: SNB-19
U-251 = tested on: U-251
OVCAR-5 = tested on: OVCAR-5
SK-MEL-5 = tested on: SK-MEL-5
OVCAR-3 = tested on: OVCAR-3
LOX IMVI = tested on: LOX IMVI
M19-MEL = tested on: M19-MEL
HCC 2998 = tested on: HCC 2998
A549 = tested on: A549
RXF 393 = tested on: RXF 393
DLD-1 = tested on: DLD-1
CAKI-1 = tested on: CAKI-1
SR = tested on: SR
SF-295 = tested on: SF-295
TK-10 = tested on: TK-10
NCI-H23 = tested on: NCI-H23
LXFL 529 = tested on: LXFL 529
OVCAR-8 = tested on: OVCAR-8
SN12C = tested on: SN12C
SF-268 = tested on: SF-268
IGROV-1 = tested on: IGROV-1
786-0 = tested on: 786-0
UO-31 = tested on: UO-31
K562 = tested on: K562
NCI-H460 = tested on: NCI-H460
SK-MEL-28 = tested on: SK-MEL-28
HCT-116 = tested on: HCT-116
COLO 205 = tested on: COLO 205
SNB-78 = tested on: SNB-78
SW-620 = tested on: SW-620
NCI-H226 = tested on: NCI-H226
DMS-273 = tested on: DMS-273
HOP-92 = tested on: HOP-92
HCT-15 = tested on: HCT-15
A498 = tested on: A498
RPMI-8226 = tested on: RPMI-8226
DMS-114 = tested on: DMS-114
HL-60 = tested on: HL-60
OVCAR-4 = tested on: OVCAR-4
UACC-257 = tested on: UACC-257
ACHN = tested on: ACHN

Structure (SMILES): O=C(CSc1nc(=O)c(-c2ccccc2NC(=O)C(F)(F)F)n[nH]1)NC(=O)Nc1ccccc1
- GI50 (SF-539): > 100 µM (inactive)
- GI50 (HOP-62): > 100 µM (inactive)
- GI50 (UACC-62): 50 µM (inactive)
- GI50 (NCI-H522): 76.4 µM (inactive)
- GI50 (HT-29): > 100 µM (inactive)
- GI50 (MOLT-4): > 100 µM (inactive)
- GI50 (CCRF-CEM): 94.8 µM (inactive)
- GI50 (EKVX): 55.5 µM (inactive)
- GI50 (M14): > 100 µM (inactive)
- GI50 (SK-OV-3): 39 µM (inactive)
- GI50 (KM12): > 100 µM (inactive)
- GI50 (SNB-75): 21.3 µM (inactive)
- GI50 (SK-MEL-2): > 100 µM (inactive)
- GI50 (Malme-3M): > 100 µM (inactive)
- GI50 (XF498): > 100 µM (inactive)
- GI50 (SNB-19): > 100 µM (inactive)
- GI50 (U-251): > 100 µM (inactive)
- GI50 (OVCAR-5): > 100 µM (inactive)
- GI50 (SK-MEL-5): > 10 µM (inactive)
- GI50 (OVCAR-3): > 100 µM (inactive)
- GI50 (LOX IMVI): > 100 µM (inactive)
- GI50 (M19-MEL): > 100 µM (inactive)
- GI50 (HCC 2998): > 100 µM (inactive)
- GI50 (A549): > 100 µM (inactive)
- GI50 (RXF 393): > 100 µM (inactive)
- GI50 (DLD-1): 18.9 µM (inactive)
- GI50 (CAKI-1): 48.1 µM (inactive)
- GI50 (SR): > 100 µM (inactive)
- GI50 (SF-295): > 100 µM (inactive)
- GI50 (TK-10): 45.9 µM (inactive)
- GI50 (NCI-H23): > 100 µM (inactive)
- GI50 (LXFL 529): 79.6 µM (inactive)
- GI50 (OVCAR-8): > 100 µM (inactive)
- GI50 (SN12C): > 100 µM (inactive)
- GI50 (SF-268): 56.6 µM (inactive)
- GI50 (IGROV-1): > 100 µM (inactive)
- GI50 (786-0): > 100 µM (inactive)
- GI50 (UO-31): 38.1 µM (inactive)
- GI50 (K562): 61.4 µM (inactive)
- GI50 (NCI-H460): 72.6 µM (inactive)
- GI50 (SK-MEL-28): > 100 µM (inactive)
- GI50 (HCT-116): > 100 µM (inactive)
- GI50 (COLO 205): > 100 µM (inactive)
- GI50 (SNB-78): > 100 µM (inactive)
- GI50 (SW-620): > 100 µM (inactive)
- GI50 (NCI-H226): 67.8 µM (inactive)
- GI50 (DMS-273): 90.8 µM (inactive)
- GI50 (HOP-92): > 100 µM (inactive)
- GI50 (HCT-15): > 100 µM

Structure (SMILES): CC(=O)CCCCO
- GI50 (SF-539): > 100 µM (inactive)
- GI50 (HOP-62): > 100 µM (inactive)
- GI50 (A498): > 100 µM (inactive)
- GI50 (UACC-62): > 100 µM (inactive)
- GI50 (RPMI-8226): > 100 µM (inactive)
- GI50 (DMS-114): > 100 µM (inactive)
- GI50 (NCI-H522): > 100 µM (inactive)
- GI50 (HT-29): > 100 µM (inactive)
- GI50 (MOLT-4): > 100 µM (inactive)
- GI50 (CCRF-CEM): > 100 µM (inactive)
- GI50 (EKVX): > 100 µM (inactive)
- GI50 (M14): > 100 µM (inactive)
- GI50 (SK-OV-3): > 100 µM (inactive)
- GI50 (KM12): > 100 µM (inactive)
- GI50 (SNB-75): > 100 µM (inactive)
- GI50 (SK-MEL-2): > 100 µM (inactive)
- GI50 (Malme-3M): > 100 µM (inactive)
- GI50 (XF498): > 100 µM (inactive)
- GI50 (SNB-19): > 100 µM (inactive)
- GI50 (U-251): > 100 µM (inactive)
- GI50 (OVCAR-5): > 100 µM (inactive)
- GI50 (SK-MEL-5): > 100 µM (inactive)
- GI50 (HL-60): > 100 µM (inactive)
- GI50 (OVCAR-4): > 100 µM (inactive)
- GI50 (OVCAR-3): > 100 µM (inactive)
- GI50 (LOX IMVI): > 100 µM (inactive)
- GI50 (M19-MEL): > 100 µM (inactive)
- GI50 (UACC-257): > 100 µM (inactive)
- GI50 (A549): > 100 µM (inactive)
- GI50 (RXF 393): > 100 µM (inactive)
- GI50 (CAKI-1): > 100 µM (inactive)
- GI50 (SF-295): > 100 µM (inactive)
- GI50 (TK-10): > 100 µM (inactive)
- GI50 (NCI-H23): > 100 µM (inactive)
- GI50 (LXFL 529): > 100 µM (inactive)
- GI50 (OVCAR-8): > 100 µM (inactive)
- GI50 (SN12C): > 100 µM (inactive)
- GI50 (SF-268): > 100 µM (inactive)
- GI50 (IGROV-1): > 100 µM (inactive)
- GI50 (ACHN): > 100 µM (inactive)
- GI50 (786-0): > 100 µM (inactive)
- GI50 (UO-31): > 100 µM (inactive)
- GI50 (K562): > 100 µM (inactive)
- GI50 (NCI-H460): > 100 µM (inactive)
- GI50 (SK-MEL-28): > 100 µM (inactive)
- GI50 (HCT-116): > 100 µM (inactive)
- GI50 (COLO 205): > 100 µM (inactive)
- GI50 (SNB-78): > 100 µM (inactive)
- GI50 (SW-620): > 100 µM (inactive)
- GI50 (DMS-273): > 100 µM (inactive)
- GI50 (HOP-92): > 100 µM (inactive)
- GI50 (HCT-15): > 100 µM
